We go through 37 molecules from ChEMBL document CHEMBL3039007, “Structure-based identification of OATP1B1/3 inhibitors” (Mol Pharmacol, 2013).

Positions of bridges follow the written chain, without caps; N, C: chain ends. Non-standard residues stand in square brackets, D forms with d. Residues, ends and D or L forms follow the SMILES beside them. *: point of attachment. Ileψ(thiazoline)Cys = CC[C@H](C)[C@H](N)C1=N[C@H](C(=O)*)CS1; dOrn = NCCC[C@@H](N)C(=O)O

Data set [1] deals with T1, Solute carrier organic anion transporter family member 1B1 (Homo sapiens, UniProt Q9Y6L6).
T1 sequence (Q9Y6L6 whole entry): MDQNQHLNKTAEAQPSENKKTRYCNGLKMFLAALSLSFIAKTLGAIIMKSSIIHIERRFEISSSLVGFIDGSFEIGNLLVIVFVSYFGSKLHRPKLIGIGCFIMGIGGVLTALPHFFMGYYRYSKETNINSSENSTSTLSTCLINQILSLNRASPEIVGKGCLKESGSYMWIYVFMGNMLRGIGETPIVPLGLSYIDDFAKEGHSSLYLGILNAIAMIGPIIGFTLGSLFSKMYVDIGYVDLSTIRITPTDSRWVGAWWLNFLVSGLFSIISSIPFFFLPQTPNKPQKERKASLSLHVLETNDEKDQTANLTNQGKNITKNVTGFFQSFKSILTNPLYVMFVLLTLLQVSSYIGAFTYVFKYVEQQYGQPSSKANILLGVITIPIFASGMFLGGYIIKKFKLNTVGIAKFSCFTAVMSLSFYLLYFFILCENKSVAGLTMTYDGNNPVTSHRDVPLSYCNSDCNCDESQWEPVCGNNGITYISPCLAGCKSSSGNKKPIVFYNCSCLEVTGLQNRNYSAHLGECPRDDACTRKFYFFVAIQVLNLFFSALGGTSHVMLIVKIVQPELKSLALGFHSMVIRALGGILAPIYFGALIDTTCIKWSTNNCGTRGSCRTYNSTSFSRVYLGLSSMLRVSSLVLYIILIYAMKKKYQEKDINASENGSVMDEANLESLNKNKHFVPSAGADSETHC
The note with it: chinese hamster, cho, 10 µM.

Data set [2] concerns the target T2, Solute carrier organic anion transporter family member 1B3 (Homo sapiens, UniProt Q9NPD5).
T2 sequence (Q9NPD5 whole entry): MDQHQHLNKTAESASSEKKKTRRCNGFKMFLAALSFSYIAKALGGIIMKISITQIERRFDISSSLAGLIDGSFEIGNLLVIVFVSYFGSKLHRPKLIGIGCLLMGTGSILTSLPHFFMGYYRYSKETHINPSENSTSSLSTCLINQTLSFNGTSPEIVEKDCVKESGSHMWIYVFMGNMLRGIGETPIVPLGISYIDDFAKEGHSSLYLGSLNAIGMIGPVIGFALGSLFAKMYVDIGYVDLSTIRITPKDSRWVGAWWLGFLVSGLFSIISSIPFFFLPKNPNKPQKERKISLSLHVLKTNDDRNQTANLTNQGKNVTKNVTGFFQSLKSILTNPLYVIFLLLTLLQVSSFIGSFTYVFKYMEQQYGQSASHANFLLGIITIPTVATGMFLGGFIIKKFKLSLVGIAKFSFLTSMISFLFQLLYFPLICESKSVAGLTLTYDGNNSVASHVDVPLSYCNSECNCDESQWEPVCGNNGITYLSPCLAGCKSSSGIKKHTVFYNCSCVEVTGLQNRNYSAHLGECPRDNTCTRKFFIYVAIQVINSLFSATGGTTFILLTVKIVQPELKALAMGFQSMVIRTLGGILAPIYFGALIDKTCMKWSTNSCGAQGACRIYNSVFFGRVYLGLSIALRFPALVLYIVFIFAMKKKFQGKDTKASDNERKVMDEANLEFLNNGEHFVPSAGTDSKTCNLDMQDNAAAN
The settings on record: chinese hamster, cho, 10 µM.

On to `Nc1nc2c(ncn2COCCO)c(=O)[nH]1` [ACYCLOVIR], for which the residual activity is reported as 103.4% in data set [1] and 105.5% in data set [2].
The corresponding values for `COc1cc(OC)c(-c2c(OC)cc(OC)cc2OC)c(OC)c1` [DIFUCOL HEXAMETHYL ETHER] are 117.5% and 105.6%.
For `COC(=O)CCC(=O)O[C@H]1CC[C@@]2(C)[C@@H](CC[C@@H]3[C@@H]2C(=O)[C@@H](O)[C@]2(C)C4C(C[C@@H]32)O[C@@]2(CCC(C)CO2)[C@H]4C)C1` (some centres undefined), the residual activity in data set [1] was determined as 131.1%; in data set [2], 83.53%.
As for `CCCCC1=NC2(CCCC2)C(=O)N1Cc1ccc(-c2ccccc2-c2nnn[nH]2)cc1` [IRBESARTAN], the residual activity in data set [1] came out at 76.05%; in data set [2], 47.18%.
On to `CN(C)CCC[C@@]1(c2ccc(F)cc2)OCc2cc(C#N)ccc21.O=C(O)C(=O)O` [ESCITALOPRAM OXALATE], for which the residual activity in data set [1] turned out to be 102.3%; in data set [2] it was 117.8%.
Consider `CS(=O)(=O)c1ccc([C@@H](O)[C@@H](CO)NC(=O)C(Cl)Cl)cc1` [THIAMPHENICOL], for which the residual activity in data set [1] stood at 102.1%; in data set [2], 103.5%.
`COc1c(C)c2c(c(O)c1C/C=C(\C)CCC(=O)O)C(=O)OC2` [MYCOPHENOLIC ACID]: the residual activity in data set [1] came to 106.8%; in data set [2], 100.1%.
Consider `C[n+]1cc2c3c(ccc2c2ccc4cc5c(cc4c21)OCO5)OCO3.O=S(=O)([O-])O` [SANGUINARINE SULFATE], for which the residual activity was 134.6% in data set [1] and 92.42% in data set [2].
Regarding `CO[C@H]1C[C@H](O[C@H]2CC[C@@]3(C)[C@H](CC[C@@H]4[C@@H]3CC[C@]3(C)[C@@H](C5=CC(=O)OC5)[C@@H](OC(C)=O)C[C@]43O)C2)O[C@@H](C)[C@@H]1O` [OLEANDRIN], the figures for the residual activity in data set [1] and in data set [2] were 111.5% and 91.7%, respectively.
Regarding `CCCCCCCCCCCC[C@@H](C(=O)O)[C@H](C)C(=O)O`, the residual activity stood at 76.63% in data set [1] and 61.85% in data set [2].
`O=C1C=C2CC3(O)COc4c(ccc(O)c4O)C3=C2C=C1O` (centres undefined) [HEMATEIN]: the residual activity in data set [1] came to 65.79%; in data set [2], 73.22%.
Take `C[C@H]1O[C@@H](O[C@H]2[C@@H](O)C[C@H](O[C@H]3[C@@H](O)C[C@H](O[C@H]4CC[C@@]5(C)[C@H](CC[C@@H]6[C@@H]5CC[C@]5(C)[C@@H](C7=CC(=O)OC7)[C@@H](O)C[C@]65O)C4)O[C@@H]3C)O[C@@H]2C)C[C@H](O)[C@@H]1O` [GITOXIN]: the residual activity worked out at 103.4% in data set [1] and 102.2% in data set [2].
For `CN1CCN(C(c2ccccc2)c2ccccc2)CC1` [CYCLIZINE] the same measures were 88.13% and 103%.
For the molecule `Cl.NCC(O)c1ccc(O)cc1` (centres undefined) [OCTOPAMINE HYDROCHLORIDE], the residual activity in data set [1] is listed as 89.25%; in data set [2], 96.06%.
For `Cl.NNCc1ccccc1` [BENZYLHYDRAZINE HYDROCHLORIDE] the same measures were 122.4% and 108.9%.
The corresponding values for `Cn1c([N+](=O)[O-])cnc1COC(N)=O` [RONIDAZOLE] are 103.6% and 88.05%.
Turning to `COC[C@]12CN(C=O)C3[C@@H]4[C@H](OC)[C@H]1[C@@]3([C@@H](OC)C[C@H]2O)[C@@H]1C[C@@]2(O)[C@H](OC(=O)c3ccccc3)[C@@H]1[C@]4(OC(C)=O)[C@@H](O)[C@@H]2OC`, the values for the residual activity in data set [1] and in data set [2] were 90.86% and 73.94%, respectively.
The corresponding values for `CC(C)[N+](C)(CCC(C(N)=O)(c1ccccc1)c1ccccc1)C(C)C.[I-]` [ISOPROPAMIDE IODIDE] are 83.43% and 91.67%.
Take `COc1cc2ccc(=O)oc2c2ccoc12` [SPHONDIN]: the residual activity was determined as 127% in data set [1] and 102.5% in data set [2].
In the case of `CC[C@H](C)[C@H](N)C1=N[C@H](C(=O)N[C@@H](CC(C)C)C(=O)N[C@H](CCC(=O)O)C(=O)N[C@H](C(=O)N[C@H]2CCCCNC(=O)[C@H](CC(N)=O)NC(=O)[C@@H](CC(=O)O)NC(=O)[C@H](Cc3cnc[nH]3)NC(=O)[C@@H](Cc3ccccc3)NC(=O)[C@H]([C@@H](C)CC)NC(=O)[C@@H](CCCN)NC2=O)[C@@H](C)CC)CS1` [BACITRACIN] ({Ileψ(thiazoline)Cys}-L[dE]IK[dOrn]I[dF]H[dD]N; lactam 4-C), the figures for the residual activity in data set [1] and in data set [2] were 78.2% and 77.52%, respectively.
The corresponding values for `COC(=O)C[C@H]1C(C)(C)C(=O)[C@@H]2CC3C4=CC(=O)O[C@@H](c5ccoc5)[C@]4(C)CC[C@@H]3[C@@]1(C)C2=O` (some centres undefined) [CARAPIN] are 20.92% and 66.49%.
With `C[C@H]1CCCC(=O)CCC/C=C/c2cc(O)cc(O)c2C(=O)O1` [ZEARALENONE], the residual activity in data set [1] was 55.9%; in data set [2], 91.51%.
As to `CO[C@H]1C[C@H](O[C@H]2CC[C@]3(C=O)[C@H]4CC[C@]5(C)[C@@H](C6=CC(=O)OC6)CC[C@]5(O)[C@@H]4CC[C@]3(O)C2)O[C@H](C)[C@H]1O` [CYMARIN], the residual activity in data set [1] is 87.74%; in data set [2], 87.59%.
`O=C(Nc1ccccc1)Nc1ccccc1`: the residual activity in data set [1] was found to be 86.66%; in data set [2] it was 104.3%.
The corresponding values for `C[C@H](N)[C@H](O)c1ccccc1` [(1R,2S)-PHENYLPROPANOLAMINE] are 97.41% and 87%.
`COc1ccc2ccc(=O)oc2c1CC=C(C)C` [OSTHOLE]: the residual activity is recorded as 227.1% in data set [1] and 121.3% in data set [2].
Regarding `CC12CC3CC(C)(C1)CC(N)(C3)C2.Cl` [MEMANTINE HYDROCHLORIDE], the results for the residual activity in data set [1] and in data set [2] were 88.64% and 88.95%, respectively.
Regarding `CCCC(=O)O[C@]1(C(=O)CO)CC[C@H]2[C@@H]3CCC4=CC(=O)CC[C@]4(C)[C@H]3[C@@H](O)C[C@@]21C` [HYDROCORTISONE BUTYRATE], the residual activity in data set [1] is on record as 100.3%; in data set [2], 98.06%.
For `CN(C)CC/C=C1/c2ccccc2Sc2ccc(Cl)cc21.Cl` [CHLORPROTHIXENE HYDROCHLORIDE] the same measures were 85.65% and 101.8%.
The corresponding values for `CC(C)Oc1ccc2c(=O)c(-c3ccccc3)coc2c1` [IPRIFLAVONE] are 137.7% and 84.86%.
Regarding `CC[N+]1(C)CCCC(OC(=O)C(O)(c2ccccc2)c2ccccc2)C1.[Br-]` (centres undefined) [PIPENZOLATE BROMIDE], the residual activity amounted to 70.99% in data set [1] and 86.01% in data set [2].
Consider `COC(=O)c1cc(O)c(=O)c2c(O)c(O)ccc2c1` [METHYL 7-DESHYDROXYPYROGALLIN-4-CARBOXYLATE], for which the residual activity in data set [1] worked out at 48.16%; in data set [2] it was 80.24%.
Consider `Cl.FC(F)(F)c1cccc(N2CCNCC2)c1` [N- (3-TRIFLUOROMETHYLPHENYL)PIPERAZINE HYDROCHLORIDE (TFMPP)], for which the residual activity is 106.1% in data set [1] and 80.23% in data set [2].
For `Clc1ccc(CSC(Cn2ccnc2)c2ccc(Cl)cc2Cl)cc1.O=[N+]([O-])O` (centres undefined) [SULCONAZOLE NITRATE], the residual activity amounted to 116.2% in data set [1] and 107.6% in data set [2].
Consider `CN1C(C(=O)Nc2ccccn2)=C(O)c2sccc2S1(=O)=O` [TENOXICAM], for which the residual activity in data set [1] came to 78.82%; in data set [2], 78.1%.
In the case of `NCC(CC(=O)O)c1ccc(Cl)cc1` (centres undefined) [BACLOFEN], the residual activity was found to be 80.8% in data set [1] and 102.2% in data set [2].
With `O=C1C(Cl)=C(Cl)C(=O)C(Cl)=C1Cl` [CHLORANIL], the residual activity came to 80.53% in data set [1] and 74.83% in data set [2].
